In patent US20220218667A1, “DUAL INHIBITORS OF SOLUBLE EPOXIDE HYDROLASE AND METHODS OF USE THEREOF” (OROX Biosciences, Inc., priority 2019, published 2022):
“And” between values parts separate entries of the source, which are not always exact repeats. Identical values can stand only once. “Also recorded” adds a separate entry of the source.

Assays:
human sEH = target: T1, human sEH (Homo sapiens, UniProt P34913); test: sEH inhibition IC50, fluorescent-based assay with purified recombinant sEH; assay type: biochemical
T1 sequence (P34913 1-555): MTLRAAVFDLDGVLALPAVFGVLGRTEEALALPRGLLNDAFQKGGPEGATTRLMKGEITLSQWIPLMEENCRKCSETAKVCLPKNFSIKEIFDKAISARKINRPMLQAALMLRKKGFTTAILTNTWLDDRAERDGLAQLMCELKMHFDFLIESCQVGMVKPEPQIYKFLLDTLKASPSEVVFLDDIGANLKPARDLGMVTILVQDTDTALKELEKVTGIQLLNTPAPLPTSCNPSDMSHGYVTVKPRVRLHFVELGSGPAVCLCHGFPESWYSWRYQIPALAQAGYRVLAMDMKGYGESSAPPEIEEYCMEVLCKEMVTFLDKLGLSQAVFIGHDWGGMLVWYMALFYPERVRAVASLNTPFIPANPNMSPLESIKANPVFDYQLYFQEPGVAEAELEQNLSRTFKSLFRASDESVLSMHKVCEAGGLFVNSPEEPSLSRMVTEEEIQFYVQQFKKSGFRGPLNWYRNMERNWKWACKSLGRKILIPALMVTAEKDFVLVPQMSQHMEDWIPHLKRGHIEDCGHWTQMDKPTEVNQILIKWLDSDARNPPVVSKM
Description: sEH inhibition IC50 values for the compounds presented herein can be assayed by a recombinant affinity assay using purified sEHs, from human, mouse or rat, in a fluorescent-based assay. In such an assay, enzymes, e.g., ˜1 nM human sEH, are incubated with a potential inhibitors for 5 min in 25 mM Bis-Tris/HCl buffer (200 μL; pH 7.0) at 30° C. before a substrate, e.g., cyano(2-methoxynaphthalen-6-yl)methyl trans-(3-phenyl-oxyran-2-yl)methyl carbonate, (CMNPC) is added ([S]final=5 μM).

COX-2 = target: T2, COX-2 (Homo sapiens, UniProt P35354); test: COX-2 inhibition IC50, COX Fluorescent Inhibitor Screening Assay; assay type: biochemical
T2 construct: purchased Cayman Chemical 700100
T2 sequence (P35354 18-604): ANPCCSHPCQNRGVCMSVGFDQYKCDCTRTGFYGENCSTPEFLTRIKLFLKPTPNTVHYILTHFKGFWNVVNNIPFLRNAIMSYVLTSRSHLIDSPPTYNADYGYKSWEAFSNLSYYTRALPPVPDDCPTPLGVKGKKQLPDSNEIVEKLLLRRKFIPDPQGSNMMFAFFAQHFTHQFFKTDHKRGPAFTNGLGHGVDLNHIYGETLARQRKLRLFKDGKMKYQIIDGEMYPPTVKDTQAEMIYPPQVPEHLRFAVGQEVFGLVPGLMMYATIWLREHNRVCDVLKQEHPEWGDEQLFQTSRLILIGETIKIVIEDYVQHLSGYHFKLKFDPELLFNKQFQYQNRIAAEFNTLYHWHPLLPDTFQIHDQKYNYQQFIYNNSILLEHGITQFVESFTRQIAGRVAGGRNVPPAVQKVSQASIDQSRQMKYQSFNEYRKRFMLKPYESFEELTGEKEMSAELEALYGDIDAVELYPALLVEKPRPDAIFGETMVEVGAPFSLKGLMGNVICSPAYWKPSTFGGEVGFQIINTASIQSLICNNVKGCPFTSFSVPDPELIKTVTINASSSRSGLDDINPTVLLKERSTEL
Description: A COX Fluorescent Inhibitor Screening Assay Kit (catalog number 700100, Cayman Chemical, Ann Arbor, Mich.) is useful for assaying the ability of the compounds provided herein to inhibit ovine COX-1 and human recombinant COX-2 (% inhibition at 100 μM and IC50 values (M), respectively). Stock solutions of test compounds are dissolved in a minimum volume of DMSO. 10 μl of various concentrations of the test compound solutions, e.g., [I]final between 0.01 and 100 μM, are added to a series of supplied reaction buffer solutions (150 μl, 100 mM Tris-HCl, pH 8.0) with either COX-1 or COX-2 (10 μl) enzyme in the presence of Heme (10 μl) and a fluorometric substrate (10 μl). The reactions are initiated by quickly adding 10 μl of arachidonic acid solution and then incubating the system for two minutes at room temperature. Fluorescence of resorufin, which is produced by the reaction between PGG2 and fluorometric substrate, ADHP (10-acetyl-3,7-dihydroxyphenoxazine), is analyzed with an excitation wavelength of 535 nm and an emission wavelength of 590 nm. The intensity of this fluorescence is proportional to the amount of resorufin, which is proportional to the amount of PGG2 present in the well during the incubation. Percent inhibition is calculated by comparison from the 100% initial activity sample value (no inhibitor).

[1] = tested on: C57B/L6 mice exposed to bleomycin; test: Example 1: prophylactic treatment of mice exposed to bleomycin (IPF model); assay type: in vivo, mouse
Text: 4-(5-phenyl-3-{3-[3-(4-trifluoromethyl-phenyl)-ureido]-propyl}-pyrazol-1-yl)-benzenesulfonamide (PTUPB) [termed OX1] was compared to Pirfenidone, Nintedanib, and GSK225629415 [termed OX3] for treatment of IPF using an established model for IPF treating, which is prophylactic treatment of mice exposed to the chemotherapeutic agent bleomycin. […] Pirfenidone and Nintedanib are standard of care for the treatment of idiopathic pulmonary fibrosis and served as reference compounds in the experiment.
C57B/L6 mice were used in the experiments. When used, Bleomycin was administered intra-oropharyngeally, 1.5 U/kg, QD per established protocol. The test articles were dosed via oral gavage in 200 μL/day vehicle. The doses and formulations of test articles were selected based on the literature describing the lowest doses capable of eliciting pharmacological action.
Animals were dosed with the test articles (or vehicle) starting at day −1 to day 20. On day 1, daily doses of Bleomycin commenced in all but group 1 (negative control) which received the vehicle. On day 21, all animals were weighed and sacrificed. After lungs and bronco-alveolar lavage fluid (BALF) were harvested, they were prepared according to standard procedures for further analysis and histology. All animals were assessed twice a week for body weight and overall appearance. Efficacy endpoints measured in this study included lung weight, total leukocytes, and histology as determined by Mason's Trichrome stain and scored using a modified Ashcroft score.
The following parameters were measured in bronchoalveolar fluid (BALF): 1) soluble collagen and 2) differential leukocyte counts for different leukocyte populations.
After weighing and removal of BALF from the lungs, they were inflated and fixed using 10% neutral buffered formalin for histopathology analysis. Fifty-four formalin-fixed lung samples from mice were submitted to HistoTox Labs and were processed routinely. Two slides from each block were sectioned and stained with hematoxylin and eosin (H&E) or Masson's trichrome. Glass slides were evaluated with light microscopy by a board-certified veterinary pathologist. Lung sections were scored according to the modified Ashcroft scale.

[2] = day 21, OX1, OX3, Nintedanib 30 mg/kg QD, Pirfenidone 100 mg/kg BID, oral
[3] = day 21, compared to vehicle (Group 2), OX1, OX3, Nintedanib 30 mg/kg QD, Pirfenidone 100 mg/kg BID

Which results are given for `NS(=O)(=O)c1ccc(-n2nc(CCCNC(=O)Nc3ccc(C(F)(F)F)cc3)cc2-c2ccccc2)cc1` [OX1, 4-(5-phenyl-3-{3-[3-(4-trifluoromethyl-phenyl)-ureido]-propyl}-pyrazol-1-yl)-benzenesulfonamide]?
IC50 (human sEH): 2 nM; IC50 (COX-2): 100 nM; body weight change at end of experiment compared to starting point ([1]; bleomycin mice, OX1 30 mg/kg QD oral gavage day -1 to 20, day 21 vs day -1, 30 mg/kg): −1% and ~1%; body weight course over 21 days ([1]; bleomycin mice, oral gavage day -1 to 20, OX1, OX3, Nintedanib 30 mg/kg QD, Pirfenidone 100 mg/kg BID): lost the least weight; lung weight (indicator of fluid accumulation and inflammation) ([1]; day 21, OX1 30 mg/kg QD oral): performed best in reducing bronchoalveolar fluid (BALF) accumulation and inflammation; soluble collagen in BALF ([1]; day 21, OX1 30 mg/kg QD oral, 30 mg/kg): most effective in controlling the overall collagen production; also recorded: most effective test article in lowering production of soluble collagen; neutrophil migration into BALF [1, 2]: effective; number of lymphocytes in BALF [1, 2]: most effective at maintaining a large number of lymphocytes; total cell (leukocyte) count in BALF [1, 2]: did not demonstrate the same level of reduction; increased collagen (fibrosis) score, trichrome [1, 3]: lowest tissue deposition of collagen; also recorded: markedly reduced; mean Ashcroft score (lung histology) [1, 3]: markedly reduced; mean score for mixed peribronchiolar/perivascular inflammation [1, 3]: lower
